Results taken from publication PMC10296995, “Phospholipid Encapsulation of an Anti-Fibrotic Endopeptide to Enhance Cellular Uptake and Myocardial Retention” (Cells, 2023).
Where a SMILES comes first, the peptide text is derived from it.

Columns and labels:
[1] = system: human cardiac fibroblasts; assay: MTT cell viability assay, cardiac fibroblasts; assay type: cell-based; conditions: 0.24 µg/mL, 24 h, n = 7-8
Method: To access cell viability and proliferation in response to the liposome-peptide, Thiazolyl Blue Tetrazolium Bromide (MTT; Sigma-Aldrich, M2128) assay was performed. Briefly, human cardiac fibroblasts (Lifeline Cell Technology, San Diego, CA, USA #FC-0060) and RAW macrophages were plated into 96-well plates at a density of 8000–10,000 cells/well. After 24 h, cells were serum-starved overnight, followed by incubation in empty liposomes and PBS (L-PBS), L-Ac-SDKP (0.24 µg/mL), or Ac-SDKP (0.24 µg/mL) for an additional 24 h. After this, the media were replaced, and the cells were incubated in the MTT substrate for 3.5 h at 37 °C. The yellow-orange colored product, a stable soluble formazan, was quantified at 450 nm using a microplate reader. Relative viability was calculated in relation to the cells treated with culture media alone as a control.

[2] = system: primary mouse cardiac fibroblasts; assay: Cellular uptake by flow cytometry, cardiac fibroblasts; assay type: cell-based; conditions: FITC-labeled peptide 0.24 µg/mL, 4 h, mean ± SD, n = 4
Method: Cellular uptake of L-Ac-SDKP was assessed in mouse cardiac fibroblasts and macrophages. Briefly, cultured macrophages (RAW 264.7 cells, ATCC) and primary mouse cardiac fibroblasts were incubated with L-Ac-SDKP or free peptides (Ac-SDKP) at a concentration of 0.24 µg/mL. For the intracellular distribution assay, cells were cultured on sterile coverslips, incubated with Ac-SDKP or L-Ac-SDKP for 4 h, fixed with 4% paraformaldehyde, mounted, and imaged using a fluorescence microscope (Zeiss LSM 800 laser scanning microscope) at ×400 magnification. For quantification of the peptide uptake, cells were detached and examined with a BD Accuri C6-Plus flow cytometer and further analyzed by FCS Express 6-De Novo software, […].

[3] = rapid breakdown by angiotensin-converting enzymes; cited from earlier work
Description: (a) Schematic representation of free Ac-SDKP, a liposome (a lipid bilayer nanoparticle), and L-Ac-SDKP (Ac-SDKP inside the liposome). (b,c) Representative graphs of liposome size distribution and zeta potential, respectively, by nanoparticle tracking analysis. Comparative data for empty liposome (L-PBS) and L-Ac-SDKP for (d) size, (e) polydispersity, and (f) zeta potential. (g), Ac-SDKP concentration in the liposomal formulations (L-PBS vs. L-Ac-SDKP). Cryo-TEM images of L-Ac-SDKP (h) and empty liposome (L-PBS) (i) and a comparative data for size (j). Scale ...

SMILES: CC(=O)N[C@@H](CO)C(=O)N[C@@H](CC(=O)O)C(=O)N[C@@H](CCCCN)C(=O)N1CCC[C@H]1C(=O)O [Ac-SDKP, N-acetyl-ser-asp-lys-pro] (Ac-SDKP-OH)
- percent cell viability, cardiac fibroblasts [1]: did not affect percent cell viability
- percentage of FITC-positive cardiac fibroblasts (uptake) [2]: 8.5% ± 2.96
- plasma half-life [3]: 4.5 min
